The target in one experiment is Cathepsin S (UniProt P25774). Briefly: Cathepsin enzyme inhibition assay (fluorogenic peptide substrate Z-Val-Val-Arg-AMC), Cathepsin S. The format is biochemical, human and mouse. The note with it: enzyme 1 nM, substrate 20 μM, pH 6.5; read-out: CatS IC50. The essentials:
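Human or mouse cathepsin S (1 nM) was run in 100 mM potassium phosphate pH 6.5 with 5 mM EDTA, 0.001% Triton X-100 and 5 mM DTT. The rise in AMC fluorescence from cleavage was measured, and IC50 values were calculated by standard methods and expressed in μM.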

The next experiment addresses Cat L (UniProt P07711). Briefly: Cathepsin enzyme inhibition assay (fluorogenic peptide substrate Z-Val-Val-Arg-AMC), Cathepsin L. The format is biochemical, human and mouse. Conditions: for IC50: enzyme 1 nM, substrate 20 μM, pH 6.5, read-out: CatL IC50. The procedure, abridged: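 Cathepsin L at 1 nM was mixed with compound, then started with 20 μM Z-Val-Val-Arg-AMC in pH 6.5 potassium phosphate with EDTA, Triton X-100 and 5 mM DTT. AMC fluorescence (ex 360/em 465 nm) was followed over 20 min. IC50 is given in μM.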

The values that follow come from patent publication US8163793B2, “Proline derivatives” (Hoffman-La Roche Inc., priority 2009, dated 2012).

Turning to `Cc1cc(N2C[C@H](S(=O)(=O)c3ccc(N4CCN(C)CC4)cc3C(F)(F)F)C[C@H]2C(=O)NC2(C#N)CC2)n(C2CCC2)n1` [Example 389, (2S,4R)-1-(2-Cyclobutyl-5-methyl-2H-pyrazol-3-yl)-4-[4-(4-methyl-piperazin-1-yl)-2-trifluoromethyl-benzenesulfonyl]-pyrrolidine-2-carboxylic acid (1-cyano-cyclopropyl)-amide], the IC50 (in general, the midpoint of a concentration-inhibition curve) on Cathepsin S came to 0.2 nM; at Cat L, 8060 nM.
The like results for `C[C@H](Oc1ccc(S(=O)(=O)[C@@H]2C[C@@H](C(=O)NC3(C#N)CC3)N(C(=O)C3CC3)C2)c(Cl)c1)C(F)(F)F` [Example 197, (2S,4R)-4-[2-Chloro-4-((S)-2,2,2-trifluoro-1-methyl-ethoxy)-benzenesulfonyl]-1-cyclopropanecarbonyl-pyrrolidine-2-carboxylic acid (1-cyano-cyclopropyl)-amide] were, in that order, 0.9 nM and 19000 nM.
Taken in the same sequence, the figures for `CC(C)(C)C(=O)N1C[C@H](S(=O)(=O)c2ccc(OCC(F)(F)F)cc2Cl)C[C@H]1C(=O)NC1(C#N)CC1` [Example 176, (2S,4R)-4-[2-Chloro-4-(2,2,2-trifluoro-ethoxy)-benzenesulfonyl]-1-(2,2-dimethyl-propionyl)-pyrrolidine-2-carboxylic acid (1-cyano-cyclopropyl)-amide] were 0.98 nM and 35800 nM.
Taken in the same sequence, the figures for `COCCN1CCN(c2ccc(S(=O)(=O)[C@@H]3C[C@@H](C(=O)NC4(C#N)CC4)N(C(=O)C4(C(F)(F)F)CC4)C3)c(Cl)c2)CC1` [Example 297, (2S,4R)-4-{2-Chloro-4-[4-(2-methoxy-ethyl)-piperazin-1-yl]-benzenesulfonyl}-1-(1-trifluoromethyl-cyclopropanecarbonyl)-pyrrolidine-2-carboxylic acid (1-cyano-cyclopropyl)-amide] were 0.08 nM and 1340 nM.
In the case of `N#CC1(NC(=O)[C@@H]2C[C@@H](S(=O)(=O)c3ccc(F)cc3F)CN2C(=O)C2(c3ccc(Cl)cc3)CC2)CC1` [Example 235, (2S,4R)-1-[1-(4-Chloro-phenyl)-cyclopropanecarbonyl]-4-(2,4-difluoro-benzenesulfonyl)-pyrrolidine-2-carboxylic acid (1-cyano-cyclopropyl)-amide], the IC50 at Cathepsin S came to 0.95 nM; on Cat L, 550 nM.
As to `N#CC1(NC(=O)[C@@H]2C[C@@H](S(=O)(=O)c3ccc(OCC(F)(F)F)cc3Cl)CN2C(=O)C2(c3cccc(C(F)(F)F)c3)CC2)CC1` [Example 311, (2S,4R)-4-[2-Chloro-4-(2,2,2-trifluoro-ethoxy)-benzenesulfonyl]-1-[1-(3-trifluoromethyl-phenyl)-cyclopropanecarbonyl]-pyrrolidine-2-carboxylic acid (1-cyano-cyclopropyl)-amide], the IC50 was found to be 0.155 nM at Cathepsin S and 745 nM on Cat L.
Taken in the same sequence, the figures for `CC(C)(C)OC(=O)N1C[C@H](S(=O)(=O)c2ccc(Cl)cc2Cl)C[C@H]1C(=O)NC1(C#N)CC1` [Example 4, (2S,4R)-2-(1-Cyano-cyclopropylcarbamoyl)-4-(2,4-dichloro-benzenesulfonyl)-pyrrolidine-1-carboxylic acid-tert-butyl ester] were 5.2 nM and 16500 nM.
The like results for `N#CCNC(=O)[C@@H]1C[C@@H](S(=O)(=O)c2ccccc2)CN1C(c1ccccc1)C(F)(F)F` (stereo partly drawn) [Example 56, (2S,4R)-4-Benzenesulfonyl-1-(2,2,2-trifluoro-1-phenyl-ethyl)-pyrrolidine-2-carboxylic acid cyanomethyl-amide] were, in that order, 42.7 nM and not below 25000 nM.
`Cc1cc(N2C[C@H](S(C)(=O)=O)C[C@H]2C(=O)NC2(C#N)CC2)n(-c2ccc(C(F)(F)F)cc2)n1` [Example 462, (2S,4R)-4-Methanesulfonyl-1-[5-methyl-2-(4-trifluoromethyl-phenyl)-2H-pyrazol-3-yl]-pyrrolidine-2-carboxylic acid (1-cyano-cyclopropyl)-amide]: the IC50 on Cathepsin S was 9490 nM; at Cat L it was more than 25000 nM.
As for `CC(C)(C)OC(=O)N1C[C@H](S(=O)(=O)c2ccccc2CO)C[C@H]1C(=O)NC1(C#N)CC1` [Example 1, (2S,4R)-2-(1-Cyano-cyclopropylcarbamoyl)-4-(2-hydroxymethyl-benzenesulfonyl)-pyrrolidine-1-carboxylic acid tert-butyl ester], the IC50 is 15 nM at Cathepsin S and not below 25000 nM at Cat L.
The like results for `N#CC1(NC(=O)[C@@H]2C[C@@H](S(=O)(=O)c3ccccc3C(F)(F)F)CN2c2nnc(C(F)(F)F)s2)CC1` [Example 335, (2S,4R)-4-(2-Trifluoromethyl-benzenesulfonyl)-1-(5-trifluoromethyl-[1,3,4]thiadiazol-2-yl)-pyrrolidine-2-carboxylic acid (1-cyano-cyclopropyl)-amide] were, in that order, 0.484 nM and not below 25000 nM.
Regarding `N#CC1(NC(=O)[C@@H]2C[C@@H](S(=O)(=O)c3ccc(Cl)cc3Cl)CN2c2ncccc2C(F)(F)F)CC1` [Example 188, (2S,4R)-4-(2,4-Dichloro-benzenesulfonyl)-1-(3-trifluoromethyl-pyridin-2-yl)-pyrrolidine-2-carboxylic acid (1-cyano-cyclopropyl)-amide], the IC50 at Cathepsin S is 6.4 nM; on Cat L it was 16700 nM.
Taken in the same sequence, the figures for `CC(C)CC(=O)N1C[C@H](S(=O)(=O)c2ccc(OCC(F)(F)F)cc2Cl)C[C@H]1C(=O)NC1(C#N)CC1` [Example 180, (2S,4R)-4-[2-Chloro-4-(2,2,2-trifluoro-ethoxy)-benzenesulfonyl]-1-(3-methyl-butyryl)-pyrrolidine-2-carboxylic acid (1-cyano-cyclopropyl)-amide] were 0.47 nM and 21400 nM.
For `N#CC1(NC(=O)[C@@H]2C[C@H](S(=O)(=O)c3ccccc3C(F)(F)F)CN2)CC1` [Example 159, (2S,4S)-4-(2-Trifluoromethyl-benzenesulfonyl)-pyrrolidine-2-carboxylic acid (1-cyano-cyclopropyl)-amide], the IC50 at Cathepsin S is 2610 nM; at Cat L, not below 25000 nM.
As for `N#CC1(NC(=O)[C@@H]2C[C@@H](S(=O)(=O)c3ccccc3C(F)(F)F)CN2C(=O)C2(C(F)(F)F)CC2)CC1` [Example 205, (2S,4R)-4-(2-Trifluoromethyl-benzenesulfonyl)-1-(1-trifluoromethyl-cyclopropanecarbonyl)-pyrrolidine-2-carboxylic acid (1-cyano-cyclopropyl)-amide], the IC50 at Cathepsin S was 0.2 nM; on Cat L it was 72000 nM.
In the case of `N#CC1(NC(=O)C2C[C@@H](S(=O)(=O)c3ccc(OCC(F)(F)F)cc3Cl)CN2C=O)CC1` (stereo partly drawn) [Example 182, (R)-4-[2-Chloro-4-(2,2,2-trifluoro-ethoxy)-benzenesulfonyl]-1-formyl-pyrrolidine-2-carboxylic Acid (1-cyano-cyclopropyl)-amide], the IC50 on Cathepsin S is 9.7 nM; at Cat L, not below 25000 nM.
For `N#CC1(NC(=O)[C@@H]2C[C@@H](S(=O)(=O)c3ccc(N4CCCCC4)cc3Cl)CN2C(=O)C2(C(F)(F)F)CC2)CC1` [Example 135, (2S,4R)-4-(2-Chloro-4-piperidin-1-yl-benzenesulfonyl)-1-(1-trifluoromethyl-cyclopropanecarbonyl)-pyrrolidine-2-carboxylic acid (1-cyano-cyclopropyl)-amide], the IC50 worked out at 0.3 nM at Cathepsin S and 3150 nM at Cat L.
The like results for `Cc1cc(N2C[C@H](S(=O)(=O)c3ccccc3)C[C@H]2C(=O)NC2(C#N)CC2)n(-c2ccnc(Cl)c2)n1` [Example 262, (2S,4R)-4-Benzenesulfonyl-1-[2-(2-chloro-pyridin-4-yl)-5-methyl-2H-pyrazol-3-yl]-pyrrolidine-2-carboxylic acid (1-cyano-cyclopropyl)-amide] were, in that order, 4.4 nM and 28700 nM.
With `CC(=O)N1C[C@H](S(=O)(=O)c2ccc(F)cc2Cl)C[C@H]1C(=O)NC1(C#N)CC1` [Example 134, (2S,4R)-1-Acetyl-4-(2-chloro-4-fluoro-benzenesulfonyl)-pyrrolidine-2-carboxylic acid (1-cyano-cyclopropyl)-amide], the IC50 at Cathepsin S was 6.2 nM; at Cat L, not below 25000 nM.
The like results for `CC(=O)N1C[C@H](S(=O)(=O)c2ccc(-n3ccnc3)cc2C(F)(F)F)C[C@H]1C(=O)NC1(C#N)CC1` [Example 112, (2S,4R)-1-Acetyl-4-(4-imidazol-1-yl-2-trifluoromethyl-benzenesulfonyl)-pyrrolidine-2-carboxylic acid (1-cyano-cyclopropyl)-amide] were, in that order, 0.8 nM and not below 25000 nM.
In the case of `Cc1cc(N2C[C@H](S(=O)(=O)CC3CC3)C[C@H]2C(=O)NC2(C#N)CC2)n(CCc2ccccc2)n1` [Example 470, (2S,4R)-4-Cyclopropylmethanesulfonyl-1-(5-methyl-2-phenethyl-2H-pyrazol-3-yl)-pyrrolidine-2-carboxylic acid (1-cyano-cyclopropyl)-amide], the IC50 on Cathepsin S was 2790 nM. For the same compound, the “CatL, % @25 uM” value on Cat L (@25 uM compound) stood at 94% @25 uM.
For the compound `Cc1cc(N2C[C@H](S(=O)(=O)c3ccc(-n4cccn4)cc3C(F)(F)F)C[C@H]2C(=O)NC2(C#N)CC2)n(C2CCC2)n1` [Example 416, (2S,4R)-1-(2-Cyclobutyl-5-methyl-2H-pyrazol-3-yl)-4-(4-pyrazol-1-yl-2-trifluoromethyl-benzenesulfonyl)-pyrrolidine-2-carboxylic acid (1-cyano-cyclopropyl)-amide], the results for the IC50 at Cathepsin S and on Cat L were 0.338 nM and 21400 nM, respectively.
